According to PubChem BioAssay AID602470 (Southern Research Specialized Biocontainment Screening …, 2012):
Active and inactive are the calls of the source. How the calls were made is not given here.

What was measured:
[1] = test system: RSV-infected cells, antiviral CPE inhibition; test: anti-RSV activity in infected cells – counter-screen for VEEV inhibitor project, dose response (AID 602470)
[2] = as above; details: RSV-infected cells, antiviral CPE inhibition; at 12.5 µM (top of the series)

Compound | IC50 [1] [µM] | inhibition [2]
CN(C(=O)Cc1cccs1)c1nc2c(s1)CCCC2 | 0.68 | 
CN1CCN(Cc2nc3ccc([N+](=O)[O-])cc3c(=O)n2-c2ccccc2F)CC1 |  | 31.6% (inactive)
CCN1CCN(Cc2nc3ccc([N+](=O)[O-])cc3c(=O)n2-c2ccccc2F)CC1 |  | 38.2% (inactive)
